Source: US7235375B2, “Organic anion transport proteins” (Bristol-Myers Squibb Company, priority 1999, dated 2007)
Where two headings read alike, the source gives them in different places.

Target: T1, OATP2 (Homo sapiens, UniProt Q9Y6L6, N130D)
T1 sequence (Q9Y6L6 1-691 N130D): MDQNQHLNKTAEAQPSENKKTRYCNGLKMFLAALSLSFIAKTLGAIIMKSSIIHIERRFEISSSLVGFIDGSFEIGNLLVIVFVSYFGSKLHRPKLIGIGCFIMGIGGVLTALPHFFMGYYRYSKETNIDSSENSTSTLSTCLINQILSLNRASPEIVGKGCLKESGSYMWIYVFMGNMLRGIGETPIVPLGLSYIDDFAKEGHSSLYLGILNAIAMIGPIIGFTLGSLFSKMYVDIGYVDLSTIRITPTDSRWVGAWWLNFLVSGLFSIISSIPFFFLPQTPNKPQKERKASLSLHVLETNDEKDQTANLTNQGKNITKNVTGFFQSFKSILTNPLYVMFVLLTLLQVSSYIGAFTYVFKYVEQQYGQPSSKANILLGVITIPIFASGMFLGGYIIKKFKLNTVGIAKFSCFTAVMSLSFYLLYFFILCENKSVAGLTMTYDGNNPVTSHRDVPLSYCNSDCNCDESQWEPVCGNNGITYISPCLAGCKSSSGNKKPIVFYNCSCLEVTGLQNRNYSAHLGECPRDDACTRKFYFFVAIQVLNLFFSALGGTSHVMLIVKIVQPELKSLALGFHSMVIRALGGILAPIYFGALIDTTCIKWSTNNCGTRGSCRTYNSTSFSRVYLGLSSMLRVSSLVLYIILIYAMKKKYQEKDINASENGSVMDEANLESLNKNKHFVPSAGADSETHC
Details: 293EBNA (HEK293 derivative) cells transfected with pCEP-OATP2 or empty vector (MOCK), uptake for 5 minutes, absence and presence of excess unlabeled substrate, FIG. 2
Protocol: An assay for the measurement of OATP activity is performed as follows: HEK293 cells are plated in Dulbeccos Modified Eagles Medium (DMEM) plus 10% fetal bovine serum plus penicillin and streptomycin, in poly-d-lysine coated dishes and co-transfected with OATP transporter expression plasmids using Lipofectamine Plus (Life Technologies, Inc.). The cells and media are assayed for substrate transport 24 hours later. Alternatively, cell lines engineered to stably express OATPs could be plated and assayed directly without transfection. To measure transport, media is removed and monolayers are assayed in triplicate by washing once in serum-free DMEM and adding the same medium containing [^3H]-substrate alone or in the presence of various concentrations of unlabeled test compounds. […] The transport activity is expressed as moles of substrate transported into cells/mg of cell protein/minute. […]
293EBNA cells (Invitrogen, Inc.), an HEK293 cell derivative, were transiently transfected with the OATP2 expression vector pCEP-OATP2, or the pCEP4 vector alone (MOCK) and the transport of [^3H]-labeled substrates was determined 24 hours later. […] The uptake of radiolabeled substrate for 5 minutes into cells transfected with pCEP-OATP2 or empty vector (MOCK) was determined in the absence (solid bars) and presence (open bars) of excess unlabeled substrate.

NC(Cc1cc(I)c(Oc2cc(I)c(O)c(I)c2)c(I)c1)C(=O)O (centres unmarked) [thyroid hormone (T4)]
transport (specific uptake of radiolabeled substrate) by OATP2: specific uptake
transport (specific uptake of radiolabeled substrate) by OATP2 (listed as thyroid hormone (T)): transports
